Like-named read-outs stand apart in the source and are kept apart here. Blank lines part the entries; values can stand above or below the molecule they belong to.
Key:
[1] = test system: abdominal aortic aneurysms in rats; type: in vivo, rat; details: for external aortic diameter: PGG group
Protocol: Pelivascular application of calcium chloride (CaCl2) to the infrarenal abdominal aorta of rodents is an accepted rat aneurysm model. It involves exposure of the abdominal aorta through a midline incision, using gauze to apply CaCl2 solution directly onto the aorta for 15 minutes, followed by surgical closure. Using this aneurysm model, we evaluated the effect of a single PGG application on development of abdominal aortic aneurysms in rats. For this study, we exposed the abdominal aorta in adult rats (n=12), measured the aorta diameter using digital photography and applied a 0.03% PGG solution in saline for 15 minutes using soaked gauze. After rinsing in saline, we induced aortic injury with the 15-minute application of 0.5 mol/L CaCl2 solution. Control rats (n=12) were treated with saline for 15 minutes, rinsed and then treated with 0.5 mol/L CaCl2 solution for 15 minutes. After 28 days, we re-exposed the abdominal aorta under general anesthesia, measured the external diameter, then euthanized the rats and collected the aorta for analysis. […] Along with aortic dilatation, perivascular application of CaCl2 induced major changes in vascular elastin content and integrity as shown by analysis of desmosine, an amino acid which is specific to elastin, as well as histology, all shown in FIG. 12.

[2] = test system: aneurysmal aortas of rats; assay: CaCl2 abdominal aortic aneurysm progression model, PGG applied to aneurysmal aorta at day 28; type: in vivo, rat; details: PGG group, 11 of 11
Protocol: Using the same perivascular CaCl2 aortic injury model described earlier, the ability of PGG to halt the progression of growing aneurysms was evaluated. By applying PGG to healthy abdominal aorta immediately before the CaCl2-based aneurysm induction, the previously mentioned in vivo experiment essentially evaluated the effect of PGG on aneurysm formation. However, in order to create a more clinically relevant scenario, PGG was also applied to abdominal aortas of rats which were aneurysmal to investigate PGG's ability to hinder or halt aneurysm progression. In order to do this, rat aortas were treated with calcium chloride, the animals were closed, and AAA was allowed to develop for 28 days. At this time point, the aneurysmal aortas were exposed by a second surgery, and PGG was applied perivascularly using gauze. As a control, saline was applied by the same means to the remaining aneurysmal aortas. AAA progression was followed for another 28 days in both groups. A progressive diameter increase, reaching a mean 47.1±11% increase at 56 days, was measured in the control group (n=11) and the results were illustrated in FIG. 13.

porcine carotid arteries = assay: In vitro elastase digestion of treated carotid arteries; details: treated 20 minutes; 0.6% (w/v) Glut, 0.15% (w/v) PGG, alone or as cocktail; elastase 24 hrs, 37°C
Protocol: Tissue resistance to elastase degradation after treatment with various reagents is studied. Specifically, porcine carotid arteries were treated with saline (control, for 20 minutes), Glutaraldehyde (Glut) (for 20 minutes), PGG (for 20 minutes), or a combination of the two (Glut+PGG for 20 minutes, or Glut for 10 minutes followed by a separate incubation with PGG for 10 minutes). Concentrations of the reagents used were 0.6% (w/v) for Glut, 0.15% (w/v) for PGG and 9 g/L for physiological saline.
The treated tissue was then exposed to an in vitro elastase digestion assay to subject the treated tissue to digestion for 24 hrs. All experiments were conducted at 37° C. Because the values shown are percentage of digestion, the lower the value, the better the reagent used preformed in resisting elastase degradation. […] It should be noted that the digestion model used in this experiment is a very accelerated and aggressive digestion model.

porcine aortic wall = assay: Collagenase digestion of treated aortic wall; details: type I collagenase 150 U/mL, 37°C, 24 hours
Protocol: Tissue resistance to collagenase degradation after treatment with various reagents is discussed. Specifically, samples of porcine aortic wall were either left untreated (fresh) or treated with Glut alone or Glut followed by tannic acid (TA). Glut treatment was performed with 0.6% (w/v) Glut for 1 day, and then 0.2% (w/v) Glut for 7 days at room temperature; Glut/TA treatment was performed with 0.6% (w/v) Glut for 1 day, and then 0.2% (w/v) Glut for 7 days at room temperature followed by 0.15% (w/v) TA for 4 days at 37° C. The treated samples were rinsed 3 times (1 hour each) in 100 mL water, and lyophilized to record dry weight. Samples with the amount of 15 to 25 mg dry weight were immersed in 1.2 mL of type I collagenase (150 U/mL) dissolved in 50 mM Tris buffer, 10 mM CaCl2, pH 7.4, and incubated at 37° C. with orbital shaking at 650 rpm for 24 hours. Following this exposure to collagenase, samples were centrifuged (10000 rpm, 10 minutes, 4° C.), individually rinsed three times in 1 mL water, lyophilized to obtain dry weight after collagenase, and the percent of digested tissue was calculated.

[3] = test system: pure elastin strips obtained from porcine aorta; assay: Tannic acid binding to pure aortic elastin (Folin-Denis method); details: incubation up to 24 hours
Protocol: In order to determine kinetics of tannin binding to elastin, pure elastin strips obtained from porcine aorta were incubated with tannic acid (TA) for up to 24 hours. The concentration of TA in solution was assayed with the Folin-Denis method. […] All data points between 0-6 hrs are statistically different with p<0.05. The bottom diagram of FIG. 6 is a representative schematic diagram of interactions between TA and elastin. The hydrophobic domains (2, black segments) are areas in the elastin molecule that are susceptible to elastase cleavage. TA and PGG molecules (4, round structures), with an affinity for these hydrophobic areas, likely bind to these regions within elastin molecules, and establish multiple hydrogen bonds (5, dashed lines) between their hydroxyl moieties and regions of neighboring elastin molecules, resulting in improved elastin stabilization. Desmosine crosslinks (3, X) within the hydrophilic regions (1) of elastin molecules.

[4] = test system: pure elastin obtained from porcine aorta; assay: Elastase digestion of TA-treated pure aortic elastin (mass loss, histology); type: biochemical
Protocol: To investigate the potential of tannins as elastin stabilizing reagents, pure elastin obtained from porcine aorta was treated with tannic acid (TA) and the resistance of the treated porcine aorta to elastase was tested. Porcine aorta was chosen because large quantities of fresh tissue were easily obtainable. […] Purified elastin from porcine aorta was obtained using sodium hydroxide treatment followed by collagenase digestion. The smooth muscle cells, collagen and ground matrix are absent from purified aortic elastin. […] Elastase completely digested pure elastin strips, while addition of a 0.3% TA pretreatment step increased stability towards enzymatic digestion by almost 50%, as evaluated by mass loss shown in the graph at the left of FIG. 7 (p<0.05, n=6). Gravimetric data were further confirmed by histology and shown in FIG. 7A-D. Since histological analysis of elastase-digested elastin control was not possible at 48 hours due to complete (˜100%) degradation, we exposed pure elastin to elastase for only 1.5 hours, an interval which yields about 50% digestion and mass loss.

fresh aorta = assay: Resistance of treated fresh aorta to elastase digestion; details: 0.3% TA or 0.15% PGG (equimolar); accelerated digestion
Protocol: Resistance to elastase digestion was tested using fresh, untreated aorta and aorta treated with 0.3% TA or 0.15% PGG (equimolar concentrations). […] The differences between digestive values in TA and PGG samples were not significant (p>0.05). This is an accelerated digestion study, where high concentrations of enzyme were used. Such high enzyme activities are not expected to occur in vivo.

time for which in vivo binding of PGG to aortic tissue is relatively stable ([1]; rat, in vivo): ≥ 28 days | PGG content of explanted aorta ([1]; rat, in vivo, 0 days): 1.8±0.6 μg PGG/mg dry tissue | PGG content of explanted aorta ([1]; rat, in vivo, 28 days): 1.2±0.4 μg PGG/mg dry tissue
Structure (SMILES): O=C(OC[C@H]1O[C@@H](OC(=O)c2cc(O)c(O)c(O)c2)[C@H](OC(=O)c2cc(O)c(O)c(O)c2)[C@@H](OC(=O)c2cc(O)c(O)c(O)c2)[C@@H]1OC(=O)c1cc(O)c(O)c(O)c1)c1cc(O)c(O)c(O)c1 [PGG, penta-galloylglucose]
increase in aortic diameter after 28 days ([1]; 0.03% PGG in saline 15 minutes by soaked gauze before 0.5 mol/L CaCl2, day 28 vs day 0): 8±7% | loss of desmosine (elastin content) vs non-surgery control aorta ([1]; 28 days after injury): less than 15% | external aortic diameter ([1]; 28 days): 1.676±0.097 mm | external aortic diameter ([1]; day 0): 1.564±0.064 mm | aortas that maintained the same diameter or decreased at 56 days compared with 28 days [2]: 100%

resistance of tissue to elastase degradation (percentage digestion) vs saline (porcine carotid arteries): slightly improved
Structure (SMILES): O=CCCCC=O [Glut, Glutaraldehyde]
percentage of sample digested by collagenase (mass loss) (porcine aortic wall): over 20%

Structure (SMILES): O=C(OC[C@H]1O[C@@H](OC(=O)c2cc(O)c(O)c(OC(=O)c3cc(O)c(O)c(O)c3)c2)[C@H](OC(=O)c2cc(O)c(O)c(OC(=O)c3cc(O)c(O)c(O)c3)c2)[C@@H](OC(=O)c2cc(O)c(O)c(OC(=O)c3cc(O)c(O)c(O)c3)c2)[C@@H]1OC(=O)c1cc(O)c(O)c(OC(=O)c2cc(O)c(O)c(O)c2)c1)c1cc(O)c(O)c(OC(=O)c2cc(O)c(O)c(O)c2)c1 [TA, tannic acid]
TA binding kinetics normalized to dry weight of pure elastin strips [3]: rapid uptake | increase in stability towards enzymatic digestion, evaluated by mass loss ([4]; 0.3% TA pretreatment, elastase, n=6): about 50% | histology of aortic elastin structure after elastase treatment ([4]; TA-stabilized elastin, elastase for up to 48 hours): remarkably preserved | resistance of aorta to elastase (digestion values vs untreated fresh aorta) (fresh aorta): dramatically increased resistance

Reference: US20090214654A1, “TREATMENT OF ANEURYSM WITH APPLICATION OF CONNECTIVE TISSUE STABILIZATION AGENT IN COMBINATION WITH A DELIVERY VEHICLE” (priority 2008, published 2009)
